Consider four compounds from ChEMBL document CHEMBL1149550, “5(Z)-benzylidene-1,2-dihydro-9-hydroxy-10-methoxy-2,2,4-trimethyl-5H-1-aza-6-oxa-chrysenes as non-steroidal glucocorticoid receptor modulators” (Bioorg Med Chem Lett, 2007).

The structures appear in SMILES notation. Calls of active or inactive are those of the source. The calls are words filed in the database; no cut-off is given here.

For one assay, the target named is T1, Progesterone receptor (Homo sapiens, UniProt P06401).
T1 sequence (P06401 whole entry): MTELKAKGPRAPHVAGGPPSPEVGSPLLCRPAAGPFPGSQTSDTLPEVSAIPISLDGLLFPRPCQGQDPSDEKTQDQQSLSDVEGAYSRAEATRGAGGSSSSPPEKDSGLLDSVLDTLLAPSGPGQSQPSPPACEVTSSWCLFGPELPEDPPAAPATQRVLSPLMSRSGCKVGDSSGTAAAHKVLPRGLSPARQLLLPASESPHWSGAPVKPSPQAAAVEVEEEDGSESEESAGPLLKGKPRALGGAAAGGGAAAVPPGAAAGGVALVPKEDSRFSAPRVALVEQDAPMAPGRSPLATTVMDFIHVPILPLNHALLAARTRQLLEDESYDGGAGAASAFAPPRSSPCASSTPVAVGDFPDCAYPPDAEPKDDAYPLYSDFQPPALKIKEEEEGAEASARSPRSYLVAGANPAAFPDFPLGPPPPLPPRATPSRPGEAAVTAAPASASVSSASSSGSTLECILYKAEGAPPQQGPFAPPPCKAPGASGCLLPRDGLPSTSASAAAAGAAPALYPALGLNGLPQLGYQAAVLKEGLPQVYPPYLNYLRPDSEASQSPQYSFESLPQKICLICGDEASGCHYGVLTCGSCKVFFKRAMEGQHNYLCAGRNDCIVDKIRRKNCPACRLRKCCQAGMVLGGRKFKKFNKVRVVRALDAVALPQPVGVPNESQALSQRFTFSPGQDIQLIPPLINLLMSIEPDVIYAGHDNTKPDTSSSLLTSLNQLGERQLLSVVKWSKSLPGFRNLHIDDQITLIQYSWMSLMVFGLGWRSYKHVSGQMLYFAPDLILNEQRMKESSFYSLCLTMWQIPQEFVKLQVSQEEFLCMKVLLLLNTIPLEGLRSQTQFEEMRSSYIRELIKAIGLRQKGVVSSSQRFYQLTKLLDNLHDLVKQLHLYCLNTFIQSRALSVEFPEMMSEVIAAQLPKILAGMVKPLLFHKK
The assay can be described thus: Binding affinity at PR.

The target in assay [1] is T2, Mineralocorticoid receptor (Homo sapiens, UniProt P08235).
T2 sequence (P08235 whole entry): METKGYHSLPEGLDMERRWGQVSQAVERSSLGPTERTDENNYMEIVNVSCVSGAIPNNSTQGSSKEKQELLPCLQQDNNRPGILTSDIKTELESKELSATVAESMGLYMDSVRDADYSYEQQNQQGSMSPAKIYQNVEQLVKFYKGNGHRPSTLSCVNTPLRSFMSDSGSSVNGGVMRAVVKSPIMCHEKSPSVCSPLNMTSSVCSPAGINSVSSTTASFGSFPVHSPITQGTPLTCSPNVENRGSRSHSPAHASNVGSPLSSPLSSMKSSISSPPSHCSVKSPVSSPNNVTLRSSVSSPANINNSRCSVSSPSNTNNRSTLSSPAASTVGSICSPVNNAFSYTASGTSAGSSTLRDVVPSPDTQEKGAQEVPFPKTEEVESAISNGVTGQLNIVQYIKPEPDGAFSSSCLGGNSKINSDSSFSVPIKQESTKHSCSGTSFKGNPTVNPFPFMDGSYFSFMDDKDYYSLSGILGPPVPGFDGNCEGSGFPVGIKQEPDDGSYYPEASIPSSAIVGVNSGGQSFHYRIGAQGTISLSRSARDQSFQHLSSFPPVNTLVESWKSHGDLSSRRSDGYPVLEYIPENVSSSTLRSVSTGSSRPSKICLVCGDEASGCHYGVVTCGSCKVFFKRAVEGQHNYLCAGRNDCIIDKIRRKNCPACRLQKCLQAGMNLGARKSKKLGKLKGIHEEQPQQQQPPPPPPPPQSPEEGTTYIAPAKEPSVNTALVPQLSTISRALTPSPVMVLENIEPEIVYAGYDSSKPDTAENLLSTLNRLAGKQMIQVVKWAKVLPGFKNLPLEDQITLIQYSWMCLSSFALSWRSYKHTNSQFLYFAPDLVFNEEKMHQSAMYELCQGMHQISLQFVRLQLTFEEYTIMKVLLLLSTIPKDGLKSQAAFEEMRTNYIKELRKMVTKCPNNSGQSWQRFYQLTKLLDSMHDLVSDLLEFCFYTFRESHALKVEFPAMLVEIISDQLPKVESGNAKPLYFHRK
The assay can be described thus: Binding affinity at MR.

Another assay has as its target T3, Androgen receptor (Homo sapiens, UniProt P10275).
T3 sequence (P10275 whole entry): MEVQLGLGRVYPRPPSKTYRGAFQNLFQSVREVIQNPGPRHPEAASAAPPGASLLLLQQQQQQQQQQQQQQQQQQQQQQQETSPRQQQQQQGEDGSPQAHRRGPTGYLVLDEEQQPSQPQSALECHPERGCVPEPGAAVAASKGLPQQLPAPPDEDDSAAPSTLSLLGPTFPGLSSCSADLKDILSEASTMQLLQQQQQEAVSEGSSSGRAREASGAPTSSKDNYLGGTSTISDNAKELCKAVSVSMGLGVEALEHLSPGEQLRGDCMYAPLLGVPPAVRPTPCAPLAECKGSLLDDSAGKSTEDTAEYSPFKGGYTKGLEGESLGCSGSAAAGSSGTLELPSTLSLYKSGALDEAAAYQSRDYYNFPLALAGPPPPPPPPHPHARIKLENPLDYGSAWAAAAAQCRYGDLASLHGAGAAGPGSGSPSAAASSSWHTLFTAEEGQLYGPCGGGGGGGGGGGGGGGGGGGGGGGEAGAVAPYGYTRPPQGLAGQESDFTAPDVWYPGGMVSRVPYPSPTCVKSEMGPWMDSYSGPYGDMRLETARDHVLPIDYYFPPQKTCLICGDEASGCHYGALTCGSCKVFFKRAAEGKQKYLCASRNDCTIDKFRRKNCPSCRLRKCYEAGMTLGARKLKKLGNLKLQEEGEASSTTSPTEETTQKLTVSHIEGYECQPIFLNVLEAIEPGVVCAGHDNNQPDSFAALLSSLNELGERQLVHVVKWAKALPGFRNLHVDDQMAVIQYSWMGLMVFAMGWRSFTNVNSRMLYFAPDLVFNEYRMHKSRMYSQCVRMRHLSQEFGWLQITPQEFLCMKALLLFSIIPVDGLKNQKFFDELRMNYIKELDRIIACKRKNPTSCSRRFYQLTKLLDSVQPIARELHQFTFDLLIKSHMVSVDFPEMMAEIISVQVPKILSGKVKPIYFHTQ
The assay can be described thus: Binding affinity at AR.

The test system of another assay is Rattus norvegicus. The assay can be described thus: Antiinflammatory activity against carrageenan-induced paw edema in rat assessed as paw volume at 30 mg/kg after 3 hrs. Set-up: dose 30 mg/kg. Format: functional, organism-based. In general terms: Carrageenan injected into the paw causes an acute inflammation.
Assay [2] addresses T4, Glucocorticoid receptor (Homo sapiens, UniProt P04150).
T4 sequence (P04150 whole entry): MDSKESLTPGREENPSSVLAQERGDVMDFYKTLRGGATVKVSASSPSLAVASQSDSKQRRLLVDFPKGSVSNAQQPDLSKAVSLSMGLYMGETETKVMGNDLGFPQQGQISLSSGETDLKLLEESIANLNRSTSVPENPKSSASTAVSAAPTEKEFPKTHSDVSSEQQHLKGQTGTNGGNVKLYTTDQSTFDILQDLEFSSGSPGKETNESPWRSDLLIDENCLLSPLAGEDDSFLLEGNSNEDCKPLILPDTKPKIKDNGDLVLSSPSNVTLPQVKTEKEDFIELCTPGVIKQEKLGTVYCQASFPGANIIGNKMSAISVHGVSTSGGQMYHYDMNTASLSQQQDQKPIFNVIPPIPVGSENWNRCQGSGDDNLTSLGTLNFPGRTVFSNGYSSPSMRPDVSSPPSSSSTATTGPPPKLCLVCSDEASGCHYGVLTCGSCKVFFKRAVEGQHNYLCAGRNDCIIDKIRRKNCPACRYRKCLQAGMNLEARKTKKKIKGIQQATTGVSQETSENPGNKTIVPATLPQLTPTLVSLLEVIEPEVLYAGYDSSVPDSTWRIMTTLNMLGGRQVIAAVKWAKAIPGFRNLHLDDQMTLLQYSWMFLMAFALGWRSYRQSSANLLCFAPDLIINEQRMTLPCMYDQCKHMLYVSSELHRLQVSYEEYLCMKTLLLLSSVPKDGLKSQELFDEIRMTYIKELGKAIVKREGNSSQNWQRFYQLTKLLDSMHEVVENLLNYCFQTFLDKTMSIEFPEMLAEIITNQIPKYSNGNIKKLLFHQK
Format: functional.
Description: Antagonist activity at GR assessed as inhibition of dexamethasone-induced GRE activation

In assay [3] the target is T4, Glucocorticoid receptor. Format: functional. This is another data set of the same source.
Description: Agonist activity at GR by GRE activation assay
Assay [4] has as its target T4, Glucocorticoid receptor. Format: functional. The source holds these as a separate data set.
Description: Activity at GR assessed as repression of TNFalpha and IL 1-beta induced E-selectin response
Assay [5] concerns the target T4, Glucocorticoid receptor.
Description: Displacement of radiolabeled Dexamethasone from glucocorticoid receptor

Usually Ki stands for a dissociation constant, usually derived from enzyme kinetics or from competition with a known ligand. Low readings indicate higher affinity, high ones lower affinity. With `COc1c(O)ccc2c1-c1ccc3c(c1/C(=C/c1ccc(F)cc1CO)O2)C(C)=CC(C)(C)N3`, the Ki was 970 nM at Progesterone receptor, 1100 nM in assay [1] and 700 nM on Androgen receptor.

Regarding `COc1c(O)ccc2c1-c1ccc3c(c1/C(=C/c1cc(F)cc4c1OCOC4)O2)C(C)=CC(C)(C)N3`, the result with Rattus norvegicus was Active.

For orientation: IC50 means the midpoint of a concentration-inhibition curve. A word on the EC50: it is the midpoint of the concentration-response curve. A low value points to greater potency. In the case of `COc1c(O)ccc2c1-c1ccc3c(c1/C(=C/c1cccc(O)c1)O2)C(C)=CC(C)(C)N3`, the IC50 on Glucocorticoid receptor [2] turned out to be 4.7 nM; against Glucocorticoid receptor [4], 1.1 nM. The Ki on Progesterone receptor was 750 nM; in assay [1], 290 nM; on Androgen receptor, 910 nM; on Glucocorticoid receptor [5], 1.4 nM. This compound also came in with a concentration for a half-maximal effect (EC50) at Glucocorticoid receptor [3] of 1.5 nM.

In the case of `COCOCc1cc(F)ccc1/C=C1\Oc2ccc(O)c(OC)c2-c2ccc3c(c21)C(C)=CC(C)(C)N3`, the Ki at Progesterone receptor is 840 nM; in assay [1] it was 430 nM; on Androgen receptor, 630 nM.
